Laboratory results published in patent US8394828B2 (Janssen Pharmaceutica, NV, priority 2003, dated 2013).
pIC50, pKi: −log10 of the molar value. Like-named read-outs stand apart in the source and are kept apart here.

Assays:
human VR1 [1] = biological target: T1, human VR1 (Homo sapiens, UniProt Q8NER1); experiment: Human VR1 [3H] RTX binding assay; details: 3H-RTX binding; for pKi: hVR1, read-out: 3H-RTX binding assay Ki hVR1; for inhibition at 1 µM: compound at 1 μM
T1 construct: expressed in transfected cells; host or cells: HEK293
Summary of the method: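 Membranes from HEK293 cells transfected with human VR1, about 120 μg protein/ml, incubated with [3H] RTX in HEPES buffer pH 7.4 with 0.25 mg/mL fatty acid-free BSA for 60 min at 37° C. Bound radioactivity measured by scintillation counting. Non-specific binding defined with 200 nM unlabeled RTX.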

[2] = tested on: carrageenan paw-induced thermal hyperalgesia; experiment: Carrageenan Paw-induced Thermal Hyperalgesia; format: in vivo, mice or rats; details: read-out: % Recovery; for inhibition in vivo at 30 mg/kg: 30 mg/kg po
human VR1 [3] = biological target: T1, human VR1; experiment: Human VR1 functional assay (intracellular Ca++, FLIPR, capsaicin challenge); format: cell-based
Experimental: The functional activity of the test compounds was determined by measuring changes in intracellular calcium concentration using a Ca^++-sensitive fluorescent dye and FLIPR™ technology.
EC50 or IC50 values were determined from dose-response studies.

[4] = tested on: Dextran Sulfate Sodium Induced Colitis; experiment: Mouse Colitis Model (Dextran Sulfate Sodium Induced Colitis); format: in vivo, mice; details: 5% DSS in drinking water, twice daily, orally, 0.05-30 mg/kg
Text: These are similar to what occurs in human colitis.
Balb/c female mice are provided with a solution of tap water containing 5% DSS (ICN chemicals) ad libitum over a 7-day period. […] This material may be administered orally or intraperitoneally, once or twice daily. At the end of this period, the animals are euthanized and their colons are collected for further analysis. Among the parameters analyzed are the length of the colon starting from 1 cm above the anus to the top of the cecum, the weight of the colon, the consistency of any stools found within the colon, and the gross macroscopic appearance of the colon. The distal colon between the 1st and the 4th centimeter are dissected into two halves. One half is placed in 10% neutral buffered formalin for later histological analysis if desired. The other half is cleaned in a bath of physiological buffer, patted dry, weighed and then placed in a solution of 0.5% hexadecyltrimethylammonium bromide (HTAB; Sigma) dissolved in 50 mM phosphate buffer, adjusted to pH 5.4. The tissue sample thus treated is then frozen at −80° C.
For the following parameters, colon length, colon weight, stool consistency and appearance and macroscopic damage a scoring system is used to describe the changes. The 4 scores for each animal are added to provide a Total Score. Thus,
Stool Score: • 0=normal (well-formed fecal pellets); • 1=loosely-shaped moist pellets; • 2=amorphous, moist, sticky pellets; • 3=bloody diarrhea. Presence of blood in stool: add 1 to scores <3
Colon Damage Score: • 0=no inflammation • 1=reddening mild inflammation; • 2=moderate inflammation or more widely distributed; • 3=severe inflammation and/or extensively distributed
Colon Weight Score: • 0=<5% weight loss; • 1=5-14% weight loss; • 2=15-24% weight loss; • 3=25-35% weight loss; 4=>35% weight loss.
Colon Length Score: • 0=<5% shortening; • 1=5-14% shortening; • 2=15-24% shortening; • 3=25-35% shortening; • 4=>35% shortening.
Colon weight changes and colon length changes are also directly measured and the net changes compared to DSS and untreated controls are used to calculate a % inhibition of colon weight loss or colon shrinkage induced by DSS treatment.
The tissue sample previously frozen at −80° C. in 0.5% solution of HTAB is thawed, homogenized twice for 15 seconds using a Brinkman Polytron homogenizer fitted with a TS10 generator. The crude homogenate is next sonicated at 60 watts for two 5-second bursts and then centrifuged for 20 minutes at 15000×g. The supernatant of this homogenate is collected, aliquoted and frozen at −70° C. for future analysis for myeloperoxidase analysis (MPO). MPO is an intracellular enzyme found in neutrophils and can be considered a surrogate marker for neutrophil infiltration into tissues, including those afflicted with colitis (Diaz-Granados, et al., 2000).
Statistical analyses were performed by ANOVA using Multiple Comparisons Test and Tukey's test.

[5] = tested on: rings of bronchial tissue obtained from male guinea pigs; experiment: Guinea Pig Bronchial Ring Constriction; details: tissues exposed to compound for 30 min; capsaicin 10 nM-10 μM; FIG. 7
Experimental: Two mm rings of bronchial tissue obtained from male guinea pigs were suspended in normal Krebs solution between two wire hooks under an initial loading tension of 1 gram. The saline was maintained in a 5% CO2 and 95% O2 atmosphere at 37° C. in the presence of indomethacin (5 μM). A sub-maximal dose of 5-methylfurmethide (5 Mef, 1 μM) was added to each tissue to determine responsiveness using an isometric force transducer. After washout, tissues were exposed to compounds or vehicle for 30 min and treated with thiorphan (10 μM, 5% Na2CO3). A concentration-response curve was then constructed using capsaicin (10 nM-10 μM) increasing in 0.5 log unit increments. The dose response curve was calculated as % max of the 5-Mef response and estimated pA2 were determined.

mice = experiment: Hot-plate test, reference compounds; format: in vivo; details: i.p., pre-treat time 30 min
Text: The hot-plate test originally described by Eddy and Leimbach (J. Pharmacol. Exp. Ther. 107:385-393, 1953) with minor modifications (e.g., O'Callaghan and Holtzman, J. Pharmacol. Exp. Ther. 192: 497-505, 1975) is used to ascertain the analgesic potential of compounds.
Generally, male, Swiss-derived albino mice (CRS-CD1®; Charles River Laboratories), weighing 18-24 g at the time of testing or male Sprague Dawley rats (CD1, Charles River Laboratories) 100-300 g are used. The animals are weighed, placed in a plastic box with wood chips (typically 10 mice or 4-6 rats per box) and allowed to acclimate before testing. […]
An animal is placed on the heated surface and the time interval between placement and a shaking, licking or tucking of the hindpaw is recorded as the control reaction time (RTC). […] A percent maximum possible effect (% MPE) can also be calculated from the following formula: % MPE=100×(RTdc−RTc)/(CO−RTc), where RTdc and RTc are drug-treated and control reaction times, respectively, and CO is cut-off time.
As a screen, the largest possible nontoxic dose of test drug is administered. If activity is detected, and if appropriate, generally 3-5 doses (usually 10 mice or 6-8 rats per dose) are used to construct a dose response curve or time course. […] The ED50 value is determined at the time of peak effect.

[6] = FLIPR functional assay IC50 hVR1 60 min, 60 min
[7] = hVR1, capsaicin challenge, read-out: FLIPR functional assay IC50 hVR1

T1 sequence (Q8NER1 whole entry): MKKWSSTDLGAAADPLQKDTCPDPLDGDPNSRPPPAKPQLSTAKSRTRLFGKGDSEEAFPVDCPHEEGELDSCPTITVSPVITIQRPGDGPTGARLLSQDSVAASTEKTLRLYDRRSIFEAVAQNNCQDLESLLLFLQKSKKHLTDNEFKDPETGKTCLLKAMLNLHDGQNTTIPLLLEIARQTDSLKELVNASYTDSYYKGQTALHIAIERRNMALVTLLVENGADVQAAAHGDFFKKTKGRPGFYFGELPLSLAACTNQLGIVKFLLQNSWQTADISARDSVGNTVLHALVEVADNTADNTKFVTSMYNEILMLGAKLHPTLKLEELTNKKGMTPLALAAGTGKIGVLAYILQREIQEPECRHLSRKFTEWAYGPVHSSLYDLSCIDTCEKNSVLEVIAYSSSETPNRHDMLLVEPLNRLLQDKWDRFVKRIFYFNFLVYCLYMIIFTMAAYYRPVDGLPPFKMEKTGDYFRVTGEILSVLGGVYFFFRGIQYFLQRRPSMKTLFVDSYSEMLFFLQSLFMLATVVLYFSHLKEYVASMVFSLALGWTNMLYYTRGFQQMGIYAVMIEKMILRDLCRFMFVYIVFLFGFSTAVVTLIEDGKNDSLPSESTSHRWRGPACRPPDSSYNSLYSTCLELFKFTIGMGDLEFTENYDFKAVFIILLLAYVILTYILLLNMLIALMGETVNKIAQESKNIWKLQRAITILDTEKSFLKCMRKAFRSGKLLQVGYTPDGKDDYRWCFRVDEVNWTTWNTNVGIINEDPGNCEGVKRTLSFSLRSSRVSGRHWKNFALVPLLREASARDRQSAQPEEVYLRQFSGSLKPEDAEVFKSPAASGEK

Structure (SMILES): CCC(C)(C)c1ccc(CCC(=O)Nc2cnc3ccccc3c2)cc1 [Example 14, 3-[4-(1,1-Dimethyl-propyl)-phenyl]-N-quinolin-3-yl-propionamide]
- pKi (human VR1 [1]): 8.28
- inhibition in vivo at 30 mg/kg [2]: 47%
- pIC50 (human VR1 [3]; [6]): 7.52
- pIC50 (human VR1 [3]; [7]): 7.44

Structure (SMILES): CN(CC1CCCCC1)c1ccc(CCC(=O)Nc2cnc3ccccc3c2)cc1 [Example 35, 3-[4-(Cyclohexylmethyl-methyl-amino)-phenyl]-N-quinolin-3-yl-propionamide]
- pKi (human VR1 [1]): 7.09
- inhibition in vivo at 20 mg/kg ([2]; 20 mg/kg po): 87%
- pIC50 (human VR1 [3]; [6]): 6.41
- pIC50 (human VR1 [3]; [7]): 6.59

Structure (SMILES): CCCCCN(C)c1ccc(CCC(=O)Nc2cnc3ccccc3c2)cc1 [Example 37, 3-[4-(Methyl-pentyl-amino)-phenyl]-N-quinolin-3-yl-propionamide]
- pKi (human VR1 [1]): 6.75
- inhibition in vivo at 30 mg/kg [2]: 58%
- pIC50 (human VR1 [3]; [6]): 6.72
- pIC50 (human VR1 [3]; [7]): 5.96

Structure (SMILES): O=C(C=Cc1ccc(Cl)c(C(F)(F)F)c1)Nc1cnc2ccccc2c1 [Example 56, 3-(4-Chloro-3-trifluoromethyl-phenyl)-N-quinolin-3-yl-acrylamide]
- inhibition in vivo at 10 mg/kg ([2]; 10 mg/kg po): 58%

Structure (SMILES): CC(C)(C)c1ccc(C=CC(=O)Nc2cnc3ccccc3c2Cl)cc1 [Example 82, 3-(4-tert-Butyl-phenyl)-N-(4-chloro-quinolin-3-yl)-acrylamide]
- inhibition in vivo at 10 mg/kg ([2]; 10 mg/kg po): 70%

Structure (SMILES): CN(CCc1ccccc1)c1ccc(C(=O)Nc2cnc3ccccc3c2)cc1 [Example 89, 4-(Methyl-phenethyl-amino)-N-quinolin-3-yl-benzamide]
- inhibition at 1 µM (human VR1 [1]): 102%
- pKi (human VR1 [1]): 7.56
- inhibition in vivo at 10 mg/kg ([2]; 10 mg/kg po): 42%
- pIC50 (human VR1 [3]; [6]): 7.14
- pIC50 (human VR1 [3]; [7]): 5.72

Structure (SMILES): CN(c1ccc(C(=O)Nc2cnc3ccccc3c2)cc1)C1CCCCC1 [Example 102, 4-(Cyclohexyl-methyl-amino)-N-quinolin-3-yl-benzamide]
- inhibition of colon weight loss ([4]; FIG. 1): significant (p<0.05) inhibition
- inhibition of colon shrinkage ([4]; FIG. 2): significant (p<0.05) inhibition
- Colon Damage Score ([4]; FIG. 3): diminished (p>0.05), but not statistically significantly
- Stool Score ([4]; FIG. 4): decreased (p>0.05), but not statistically significantly
- inhibition of Total Score ([4]; FIG. 5): significant (p<0.05) inhibition
- Myleoperoxidase (MPO) inhibition ([4]; colon tissue, FIG. 6): inhibition (p>0.05)
- inhibition in vivo at 30 mg/kg [2]: 55%

Structure (SMILES): CCCCCN(C)c1ccc(C(=O)Nc2cnc3ccccc3c2)cc1 [Example 154, 4-(Methyl-pentyl-amino)-N-quinolin-3-yl-benzamide]
- inhibition in vivo at 10 mg/kg ([2]; 10 mg/kg sc): 83%

Structure (SMILES): O=C(Nc1cnc2ccccc2c1)c1ccc(N2CC3CCCC(C3)C2)cc1 [Example 178, 4-(3-Aza-bicyclo[3.3.1]non-3-yl)-N-quinolin-3-yl-benzamide]
- shift of the capsaicin dose-response curve [5]: shifted the capsaicin dose-response curve to the right

Structure (SMILES): O=C(Nc1cnc2ccccc2c1)c1ccc(N2CCC(Cc3ccccc3)CC2)cc1 [Example 180, 4-(4-Benzyl-piperidin-1-yl)-N-quinolin-3-yl-benzamide]
- inhibition at 1 µM (human VR1 [1]): 99%
- pKi (human VR1 [1]): 7.75
- inhibition in vivo at 10 mg/kg ([2]; 10 mg/kg po): 64%
- pIC50 (human VR1 [3]; [6]): 6.45

Structure (SMILES): CCCCCN1CCc2cc(C(=O)Nc3cnc4ccccc4c3)ccc21 [Example 227, 1-Pentyl-2,3-dihydro-1H-indole-5-carboxylic acid quinolin-3-ylamide]
- inhibition at 1 µM (human VR1 [1]): 98%
- pKi (human VR1 [1]): 7.62
- inhibition in vivo at 10 mg/kg ([2]; 10 mg/kg po): 52%
- pIC50 (human VR1 [3]; [6]): 6.97
- pIC50 (human VR1 [3]; [7]): 7.08

Structure (SMILES): O=C(CCc1ccc2c(c1)CCCC2)Nc1cnc2ccccc2c1 [N-Quinolin-3-yl-3-(5,6,7,8-tetrahydro-naphthalen-2-yl)-propionamide]
- pKi (human VR1 [1]): 6.70
- pIC50 (human VR1 [3]; [7]): 5.00

Structure (SMILES): Cc1cc(CC(=O)O)n(C)c1C(=O)c1ccc(Cl)cc1 [Zomepirac]
- ED50 (95% C.I.) (mice): inactive
